Measurements reported in patent publication US20220273617A1, “ANTI-CANCER, ANTI-INFLAMMATORY AND IMMUNOMODULATORY ACTIVITY OF R-CARVEDILOL AND METHODS OF USE” (priority 2021, published 2022).
Entries after “also recorded” stand apart in the source; their conditions may differ.

Experiments:
[1] = orally administered; cited from earlier work
[2] = Systolic blood pressure of mice, noninvasive tail-cuff system; type: in vivo; settings: 32 mg/kg/day
Protocol: SKH-1 mice were given racemic carvedilol or R-carvedilol in drinking water for two weeks (32 mg/kg/day). Blood pressure was examined in mice utilizing a Kent CODATM noninvasive tail-cuff system.

[3] = test system: B(a)P-induced lung toxicity; experiment: Short term single dose B(a)P-induced lung toxicity in mice; type: in vivo, CD1/IGS mice; settings: for plasma LDH levels / plasma MDA levels (LPO): B(a)P 125 mg/kg on day 7; for protection against B(a)P-induced histological changes and COX-2 expression: oral, compared with racemic carvedilol
Text: Chronic exposure to carcinogens that are present in tobacco smoking or air pollution is a well-known cause of lung cancer. One of the most important strategies to manage lung cancer is chemoprevention, which uses synthetic or natural products to block or reverse lung cancer initiation, promotion, and progression. Benzo(a)pyrene (B(a)P), a polycyclic aromatic hydrocarbon, is a pro-carcinogen ubiquitously present as pollutants in the environment. It is mostly produced during cigarette smoking and is present in automobile exhausts, and causes lung toxicity and lung cancer after metabolic activation. A single dose B(a)P-induced lung toxicity study in mice was used to evaluate the protective effects of carvedilol. In male CD1/IGS mice, carvedilol was orally administered (20 mg/kg body weight) once a day for 7 days. The mice were then treated with a single dose B(a)P via oral gavage (125 mg/kg body weight) on day 7, 30 min after the drug treatment. Mice were sacrificed 24 hours after B(a)P treatment. As expected, B(a)P increased the plasma levels of lactate dehydrogenase (LDH) and Malondialdehyde (MDA) for lipid peroxides (LPO).

[4] = test system: UV induced skin carcinogenesis; experiment: Chronic UV induced skin carcinogenesis model; type: in vivo, mice; settings: for delay in tumor formation compared to UV only controls: topical, chronic UV
4T1 = experiment: Triple negative breast tumor 4T1 in BalB/C mice; type: in vivo; settings: for tumor growth: 20 mg/kg/day in drinking water from two weeks before inoculation, monotherapy; for efficacy in combination with anti-PD-1 therapy: same 4T1 model, combined with anti-PD-1
Protocol: To investigate the effect of carvedilol and R-carvedilol on breast cancer growth, the BalB/C mice were treated with the drugs (20 mg/kg/day) in drinking water for two weeks before the mice were inoculated with murine triple negative breast tumor 4T1 in the fourth left mammary fat pad. […] The same experimental model was treated with carvedilol or R-carvedilol, in combination with the anti-PD-1 therapy.

[5] = Ex vivo permeation across rat skin, Franz diffusion cells; type: in vitro ADME; settings: for permeation: rat, 200 μg/mL
Protocol: Instead of nanoparticle-based topical delivery, the present inventors have explored other methods of skin delivery of drugs. They investigated the effects of natural penetration enhancers on the ex vivo permeation of carvedilol across rat skin. […] The drug formulations containing carvedilol or R-carvedilol (200 μg/mL) (1 mL) was loaded on Franz diffusion cells using excised rat dorsal skin (with hair removed). […] D-limonene is isolated from orange peel, and is a cheap and safe option to delivery carvedilol (same for R-carvedilol) for skin cancer prevention. D-limonene is present in many skin commercial products such as perfumes and essential oils. Therefore, this invention provides another novel approach of making skin targeting formulation for both carvedilol and R-carvedilol. This approach of making skin formulation is not only safe but also easier to scale up to industry level for making large amount.

[6] = test system: UV-induced immunosuppression; experiment: UV-induced suppression of contact hypersensitivity (CHS) to DNFB; type: in vivo, SKH-1 hairless mice; settings: single dose i.p. 2 h before UV 224 mJ/cm^2; carvedilol 1 and 10 mg/kg, R-carvedilol 10 mg/kg
Protocol: Mice were treated with NS398, CAR or R-CAR (L: 1 mg/kg; H: 10 mg/kg) i.p. 2 hr before UV exposure (224 mJ/cm^2). 24 h after, mice were sensitized with DNFB on back. After 7 days, the right ears were challenged with DNFB. 24 h after, 5 mm punch biopsies were obtained from both ears and weighed. The data are the mean±SE difference in ear biopsy weights (right-left) from n=5 mice (male). *: P<0.05; **: P<0.01.
The data listed are the mean±SE difference in ear biopsy weights (Right-Left) from n=5 mice (male). *: P<0.05; **:P<0.01.
Immunosuppression induced by UV radiation is commonly investigated using the contact hypersensitivity (CHS) response to contact allergens such as the hapten dinitrofluorobenzene (DNFB). […] Thus, carvedilol's skin cancer preventive activity may be partly attributed to its inhibitory effects on UV-induced immunosuppression.
The mice were pretreated with single dose of R-carvedilol (10 mg/kg, i.p.) two hours before UV radiation, and were subject to UV exposure. […] Thus, R-carvedilol, although not a β-blocker, similarly reverses UV-induced immunosuppression.
CHS assay was used to evaluate the effects of a topical delivery system of carvedilol developed by us, named “T-CAR”, on UV-induced immunosuppression. […]

JB6 [7] = settings: among 16 β-blockers examined (Cleveland K H, 2019); cited from earlier work
B(a)P-induced lung tumor = experiment: Long term B(a)P-induced lung carcinogenesis in A/J mice; type: in vivo; settings: for tumor incidence: B(a)P only 100%
Protocol: To examine the chemopreventive efficacy of carvedilol, we used an established lung carcinogenesis model in A/J mice induced by B(a)P. Two drug doses were examined: 20 mg/kg (H) and 3.2 mg/kg (L). The mice were randomly divided by body weight into seven groups at the beginning of the experiments. To induce lung tumor, mice were given a single intraperitoneal (i.p.) injection of B(a)P at 100 mg/kg body weight in 0.2 ml tricaprylin. The following are treatment groups: (1) vehicle control, n=8; (2) B(a)P only, n=9; (3) B(a)P+gefitinib 400 mg/kg, weekly oral gavage, positive control, n=10; (4) B(a)P+carvedilol 20 mg/kg drinking water, n=9; (5) B(a)P+carvedilol 3.2 mg/kg drinking water, n=8; (6) B(a)P+R-carvedilol 20 mg/kg drinking water, n=9; (7) B(a)P+R-carvedilol 3.2 mg/kg drinking water, n=10. The mice began the drug treatments 3 weeks before B(a)P treatment and terminated at 23 weeks after B(a)P treatment. […] Tumor multiplicity was determined by counting surface tumors in fixed lung under a dissecting microscope. […] The tumor incidence for gefitinib group was 70%. The tumor incidence was 89% and 50% for high and low dose carvedilol, respectively. The tumor incidence was 67% and 70% for high and low dose R-carvedilol, respectively.

B16-F10 tumor = B16-F10 tumor bearing C57BL/6 mice; type: in vivo; settings: topical daily
Protocol: Comparison of the efficacy of free drug and T-CAR (day 14). One day after tumor inoculation (two tumors per mouse, mice received free drug or T-CAR daily.
One day after tumor inoculation (one per mouse), mice received free drug or T-CAR daily, 200 μg RMP1-14 twice a week, or combination.
A: group 1, control; B: group 4, T-CAR+RMP1-14. Tumor collected at day 20 after inoculation.
Tumor collected at day 20 after inoculation.
The carvedilol loaded transfersome, T-CAR, was evaluated in vitro and in vivo on melanoma growth. […] To examine the in vivo activity of T-CAR, in C57BL/6 mice bearing the B16-F10 tumor, the T-CAR gel as a topical monotherapy was examined. The efficacy of T-CAR was compared with free drug dissolved in acetone in male mice bearing B16-F10 (two tumors inoculated in each mouse). […] Second study examined efficacy of topical T-CAR combined with anti-PD-1 (RMP1-14, 200 μg per mouse, i.p. twice per week) (one tumor was inoculated in each mouse).

JB6 [8] = experiment: EGF-induced JB6 transformation; type: cell-based, mouse
[9] = R-carvedilol alone, healthy human volunteers; cited from earlier work
[10] = Plasma concentration in mice given drug in drinking water; type: in vivo; settings: 178 μg/mL in drinking water (32 mg/kg/day), 2 weeks, 95% CI in brackets
[11] = oral 1.6 mg/kg, mice; cited from earlier work
[12] = test system: UV induced skin damage and inflammation; experiment: Acute UV induced skin damage and inflammation model; type: in vivo, mouse; settings: topical 0.1, 1 or 10 μM in acetone immediately after single UV 300 mJ/cm^2
Protocol: In an acute UV induced skin damage and inflammation model induced with a single dose of UV (300 mJ/cm^2), topical treatment with R-carvedilol (0.1, 1 or 10 μM in acetone as a vehicle), applied immediately after the UV, attenuated mouse skin edema and reduced epidermal thickening, Ki-67 staining, COX-2 protein, IL-6 and IL-10 mRNA levels.

[13] = In vitro penetration and skin retention, Franz diffusion cells and porcine ear skin; type: in vitro ADME; settings: Franz diffusion cells, porcine ear skin; free drug in water or PEG 400
Text: Thus, topical route has been investigated as a major approach in the application of R-carvedilol for clinical skin cancer prevention. In order to prepare for clinical studies, we prepared three types of transfersome-based formulation for R-carvedilol using different amount of phospholipid (soy phosphatidylcholine, SPC) or edge activator (tween-80). The particle sizes, zeta potential, encapsulation efficiency and stability for these transfersomes were very similar to those of T-CAR. […] This confirms that nano-transfersomes provide a promising delivery system for both carvedilol and R-carvedilol. Thus, this selected transfersomal formulation for R-carvedilol, named “T-RCAR”, will be further characterized in preclinical model systems and examined in clinical trials in the future.

[14] = oral 20 mg/kg once a day for 7 days
[15] = high dose 20 mg/kg drinking water
[16] = low dose 3.2 mg/kg drinking water

Question: What does the source list for `COc1ccccc1OCCNCC(O)COc1cccc2[nH]c3ccccc3c12` (racemic) [carvedilol]?
Answer: bioavailability [1]: 24%; mean systolic blood pressure ([2]; mouse, in vivo): statistically reduced mean systolic blood pressure; B(a)P-induced expression of COX-2 in lung (IHC) [3, 14]: attenuated; plasma LDH levels [3, 14]: significantly attenuated; plasma MDA levels (LPO) [3, 14]: significantly attenuated; B(a)P-induced lung morphological changes (histology) ([3]; oral 20 mg/kg once a day for 7 days, H&E): reduction in these morphological changes; delay in tumor formation compared to UV only controls [4]: 3 week; tumor growth (4T1): significantly reduced; efficacy in combination with anti-PD-1 therapy (4T1): enhanced the efficacy of anti-PD-1 monotherapy; permeation [5]: 1.6 ± 0.25 µg; permeation ([5]; pH 7.4): 0.430 /−0.07 μg; UV-induced CHS suppression [6]: reversed UV-induced suppression of CHS; potency in preventing EGF-induced neoplastic transformation of mouse epidermal cells (JB6 [7]): highest potency; tumor incidence (B(a)P-induced lung tumor; [15]): 89%; tumor incidence (B(a)P-induced lung tumor; [16]): 50%; tumor multiplicity (B(a)P-induced lung tumor; lower dose 3.2 mg/kg drinking water): significantly attenuated; tumor inhibition (total tumor volume) (B16-F10 tumor; 10 μM, day 14, two tumors per mouse, male mice): trend of tumor inhibition; tumor inhibition (total tumor volume) (B16-F10 tumor; free drug in acetone 100 μM (CAR H), day 14): less effective

Question: With `COc1ccccc1OCCNC[C@@H](O)COc1cccc2[nH]c3ccccc3c12` [R-carvedilol] as the molecule, how does the “mean systolic blood pressure” value ([2]; drinking water, 2 weeks, male SKH-1 mice) read?
Answer: did not alter blood pressure

Question: What about the “plasma LDH levels” value [3, 14] of the same molecule?
Answer: significantly attenuated

Question: And the “plasma MDA levels (LPO)” value [3, 14]?
Answer: significantly attenuated

Question: What about the “protection against B(a)P-induced histological changes and COX-2 expression” value [3] of the same molecule?
Answer: same degree of protection as the racemic carvedilol

Question: And the skin tumor development ([4]; topical 10 μM in acetone 30 min before UV)?
Answer: strongly inhibited skin tumor development

Question: What about the “delay in tumor formation compared to UV only controls” value [4] of the same molecule?
Answer: 5 week

Question: And the “inhibitory effects on EGF-induced JB6 transformation” value (JB6 [8])?
Answer: nearly identical inhibitory effects

Question: What about the tumor growth (4T1) of the same molecule?
Answer: significantly reduced

Question: And the “efficacy in combination with anti-PD-1 therapy” value (4T1)?
Answer: enhanced the efficacy of anti-PD-1 monotherapy

Question: And the adverse effects [9]?
Answer: without major adverse effects

Question: What about the mean plasma concentration [10] of the same molecule?
Answer: 25.13 ng/mL

Question: What about the “heart rate or blood pressure” value [11] of the same molecule?
Answer: did not alter heart rate or blood pressure

Question: And the skin permeation ([5]; control formulation: PBS pH 7.4 with 40% v/v PEG 400)?
Answer: minimal

Question: And the “UV-induced CHS suppression” value [6]?
Answer: reversed UV-induced suppression of CHS; also recorded: significantly reversed UV-induced CHS suppression

Question: What about the COX-2 protein [12] of the same molecule?
Answer: reduced

Question: And the “IL-6 mRNA levels” value [12]?
Answer: reduced

Question: And the “IL-10 mRNA levels” value [12]?
Answer: reduced

Question: And the Ki-67 staining [12]?
Answer: reduced

Question: And the epidermal thickening [12]?
Answer: reduced

Question: And the mouse skin edema [12]?
Answer: attenuated

Question: And the skin permeation [13]?
Answer: very little

Question: And the skin retention [13]?
Answer: very little

Question: And the tumor inhibition (B(a)P-induced lung tumor; 20 and 3.2 mg/kg drinking water)?
Answer: same trend of tumor inhibition as carvedilol

Question: And the tumor incidence (B(a)P-induced lung tumor; [15])?
Answer: 67%

Question: What about the tumor incidence (B(a)P-induced lung tumor; [16]) of the same molecule?
Answer: 70%

Question: What does the source list for `COc1ccccc1OCCNC[C@H](O)COc1cccc2[nH]c3ccccc3c12` [S-carvedilol]?
Answer: plasma LDH levels [3, 14]: significantly attenuated; plasma MDA levels (LPO) [3, 14]: significantly attenuated; protection against B(a)P-induced histological changes and COX-2 expression [3]: same degree of protection as the racemic carvedilol; inhibitory effects on EGF-induced JB6 transformation (JB6 [8]): nearly identical inhibitory effects

Question: Which tumor incidence (B(a)P-induced lung tumor; 400 mg/kg weekly oral gavage, positive control) does the source give for `COc1cc2ncnc(Nc3ccc(F)c(Cl)c3)c2cc1OCCCN1CCOCC1` [gefitinib] here?
Answer: 70%
